In USRE48097E1, “Cephem compounds, their production and use” (priority 2015, dated 2020):
Values after ≈ are worked out from the molar mass of the structure shown. Read-outs that look alike come from different tables or passages of the source. Blank lines part the entries; values can stand above or below the compound they belong to.

Columns and labels:
[1] = tested on: K. pneumoniae 4107; assay: MIC against K. pneumoniae 4107; type: cell-based; conditions: K. pneumoniae 4107, KPC-2, TEM-1, SHV-11
Procedure: (§1) As shown, the foregoing composition was tested for minimum inhibitory concentration (MIC, μg/mL) against bacteria listed in Tables 2-3.

[2] = tested on: C. freundii 15; assay: MIC against C. freundii 15; type: cell-based; conditions: Table 2, C. freundii 15, Caz R, IMP S
Description: (§2) Without limitation, the present cephem compounds alone, or in combination with one or more β-lactamase inhibitors, may provide improved antibacterial efficacy, particularly in antibiotic-resistant bacterial strains. It is believed that the present compounds may be structurally different from known compounds and, as a result, may be more basic in nature. It is an advantage that the present compounds may extend the spectrum of effective bacterial compounds, particularly against previously-resistant bacteria (e.g. ESKAPE organisms), and/or gram negative bacteria, without significant side effects. In a preferred embodiment, the present cephem compound may comprise reference compound ceftazidime, which may be used alone, or in combination with one or more β-lactamase inhibitors, such as NXL-104. As shown, the foregoing composition was tested for minimum inhibitory concentration (MIC, μg/mL) against bacteria listed in Tables 2-3.

[3] = tested on: S. pneumoniae ATCC 700673; assay: MIC against S. pneumoniae ATCC 700673; type: cell-based; conditions: Table 2, S. pneumoniae ATCC 700673, Pen R
Description: as §2

[4] = tested on: S. aureus3137; assay: MIC against S. aureus3137; type: cell-based, S. aureus; conditions: Table 2, S. aureus3137, MSSA
Description: as §2

[5] = tested on: E. cloacae 2705; assay: MIC against E. cloacae 2705; type: cell-based; conditions: Table 3, E. cloacae 2705, VIM-1, KPC-3type
Procedure: as §1

[6] = tested on: K. pneumoniae 4088; assay: MIC against K. pneumoniae 4088; type: cell-based; conditions: Table 3, K. pneumoniae 4088, KPC-3
Procedure: as §1

[7] = tested on: K. pneumoniae 4106; assay: MIC against K. pneumoniae 4106; type: cell-based; conditions: K. pneumoniae 4106, KPC-3, TEM-1, SHV-12, SHV-141
Procedure: as §1

[8] = tested on: E. cloacae 2689; assay: MIC against E. cloacae 2689; type: cell-based; conditions: Table 3, E. cloacae 2689, KPC-2
Procedure: as §1

[9] = tested on: E. cloacae 552; assay: MIC against E. cloacae 552; type: cell-based; conditions: Table 2, E. cloacae 552, Caz S, IMP S
Description: as §2

[10] = tested on: K. pneumoniae 4105; assay: MIC against K. pneumoniae 4105; type: cell-based; conditions: K. pneumoniae 4105, KPC-3, TEM-1, SHV-11
Procedure: as §1

[11] = tested on: C. freundii 2003; assay: MIC against C. freundii 2003; type: cell-based; conditions: Table 2, C. freundii 2003, Caz R, IMP S
Description: as §2

[12] = tested on: E. coli 4101; assay: MIC against E. coli 4101; type: cell-based; conditions: Table 2, E. coli 4101, CTX-M-14, TEM-1
Description: as §2

[13] = tested on: E. cloacae 2704; assay: MIC against E. cloacae 2704; type: cell-based; conditions: Table 2, E. cloacae 2704, P99
Description: as §2

[14] = tested on: K. baumanii 4094; assay: MIC against K. baumanii 4094; type: cell-based; conditions: Table 2, K. baumanii 4094, OXA-51
Description: as §2

[15] = tested on: C. freundii 2487; assay: MIC against C. freundii 2487; type: cell-based; conditions: Table 2, C. freundii 2487, Caz R, IMP S
Description: as §2

[16] = tested on: E. coli 4103; assay: MIC against E. coli 4103; type: cell-based; conditions: Table 3, E. coli 4103, KPC-2, TEM-1, CMY-type
Procedure: as §1

[17] = tested on: E. cloacae596; assay: MIC against E. cloacae596; type: cell-based, E. cloacae; conditions: Table 2, E. cloacae596, Caz R, IMP S
Description: as §2

[18] = tested on: E. cloacae 566; assay: MIC against E. cloacae 566; type: cell-based; conditions: Table 2, E. cloacae 566, Caz R, IMP S
Description: as §2

[19] = tested on: S. aureus 3147; assay: MIC against S. aureus 3147; type: cell-based; conditions: Table 2, S. aureus 3147, MSSA
Description: as §2

[20] = tested on: K. pneumoniae 2712; assay: MIC against K. pneumoniae 2712; type: cell-based; conditions: Table 3, K. pneumoniae 2712, KPC-3, VIM-1
Procedure: as §1

[21] = tested on: P. aeruginosa 2573; assay: MIC against P. aeruginosa 2573; type: cell-based; conditions: Table 2, P. aeruginosa 2573, OXA-10 (Class D)
Description: as §2

[22] = tested on: K. pneumoniae 2697; assay: MIC against K. pneumoniae 2697; type: cell-based; conditions: Table 2, K. pneumoniae 2697, IMP-4
Description: as §2

[23] = tested on: M. morganii 2409; assay: MIC against M. morganii 2409; type: cell-based; conditions: Table 2, M. morganii 2409, High level cephase, β-Lactamase producing
Description: as §2

[24] = Klebsiella pneumoniae, 4107, Table 2, alone, read-out: MIC
[25] = Klebsiella pneumoniae, 4107, Table 3, alone, read-out: MIC
[26] = Table 2, in combination with NXL-104
[27] = Table 3, in combination with NXL-104
[28] = Citrobacter freundii, alone, read-out: MIC
[29] = Streptococcus pneumoniae, ATCC700673, alone, read-out: MIC
[30] = Staphylococcus aureus, alone, read-out: MIC
[31] = Enterobacter cloacae, alone, read-out: MIC
[32] = Klebsiella pneumoniae, alone, read-out: MIC
[33] = Klebsiella pneumoniae, 4106, Table 2, alone, read-out: MIC
[34] = Klebsiella pneumoniae, 4106, Table 3, alone, read-out: MIC
[35] = Klebsiella pneumoniae, 4105, Table 2, alone, read-out: MIC
[36] = Klebsiella pneumoniae, 4105, Table 3, alone, read-out: MIC
[37] = Escherichia coli, alone, read-out: MIC
[38] = Pseudomonas aeruginosa, alone, read-out: MIC
[39] = Morganella morganii, alone, read-out: MIC

- MIC [1, 24]: 32 µg/mL (≈ 45.2 µM)
- MIC [1, 25]: 16 µg/mL (≈ 22.6 µM)
- MIC [1, 26]: 2.00 µg/mL
- MIC [1, 27]: 1 µg/mL
- MIC [2, 28]: 8 µg/mL
- MIC ([2]; in combination with NXL-104): 0.50 µg/mL
- MIC [3, 29]: 2 µg/mL
- MIC ([3]; in combination with NXL-104): 2.00 µg/mL
- MIC [4, 30]: 32 µg/mL
- MIC ([4]; in combination with NXL-104): 8.00 µg/mL
- MIC [5, 31]: > 32 µg/mL
- MIC ([5]; in combination with NXL-104): >32 µg/mL
- MIC [6, 32]: > 32 µg/mL
- MIC ([6]; in combination with NXL-104): 2 µg/mL
- MIC [7, 33]: 16 µg/mL (≈ 22.6 µM)
- MIC [7, 34]: 32 µg/mL (≈ 45.2 µM)
- MIC [7, 26]: 1.00 µg/mL
- MIC [7, 27]: 2 µg/mL
- MIC [8, 31]: 16 µg/mL (≈ 22.6 µM)
- MIC ([8]; in combination with NXL-104): 1 µg/mL
- MIC [9, 31]: 0.12 µg/mL
- MIC ([9]; in combination with NXL-104): 0.25 µg/mL
- MIC [10, 35]: 32 µg/mL (≈ 45.2 µM)
- MIC [10, 36]: 32 µg/mL (≈ 45.2 µM)
- MIC [10, 26]: 1.00 µg/mL
- MIC [10, 27]: 2 µg/mL
- MIC [11, 28]: 4 µg/mL
- MIC ([11]; in combination with NXL-104): 0.50 µg/mL
- MIC [12, 37]: 0.5 µg/mL
- MIC ([12]; in combination with NXL-104): ≤0.06 µg/mL
- MIC [13, 31]: 32 µg/mL
- MIC ([13]; in combination with NXL-104): 1.00 µg/mL
- MIC ([14]; alone, read-out: MIC): 16 µg/mL
- MIC ([14]; in combination with NXL-104): 8.00 µg/mL
- MIC [15, 28]: 8 µg/mL
- MIC ([15]; in combination with NXL-104): 1.00 µg/mL
- MIC [16, 37]: > 32 µg/mL
- MIC ([16]; in combination with NXL-104): 4 µg/mL
- MIC [17, 31]: 8 µg/mL
- MIC ([17]; in combination with NXL-104): 0.50 µg/mL
- MIC [18, 31]: 4 µg/mL
- MIC ([18]; in combination with NXL-104): 0.50 µg/mL
- MIC [19, 30]: 4 µg/mL
- MIC ([19]; in combination with NXL-104): 4.00 µg/mL
- MIC [20, 32]: > 32 µg/mL
- MIC ([20]; in combination with NXL-104): 4 µg/mL
- MIC [21, 38]: 2 µg/mL
- MIC ([21]; in combination with NXL-104): 2.00 µg/mL
- MIC [22, 32]: 16 µg/mL
- MIC ([22]; in combination with NXL-104): 0.50 µg/mL
- MIC [23, 39]: 16 µg/mL
- MIC ([23]; in combination with NXL-104): 1.00 µg/mL
SMILES: CC(C)(O/N=C(\C(=O)N[C@@H]1C(=O)N2C(C(=O)[O-])=C(C[n+]3ccc4c(ccn4Cc4cc(C(=N)N)co4)c3)CS[C@H]12)c1csc(N)n1)C(=O)O [Example 6, (6R,7R)-7-{[(2Z)-2-(2-Amino-1,3-thiazol-4-yl)-2-{[(2-carboxypropan-2-yl)oxy]imino}acetyl]amino}-3-({1-[(4-carbamimidoylfuran-2-yl)methyl]-1H-pyrrolo[3,2-c]pyridin-5-ium-5-yl}methyl)-8-oxo-5-thia-1-azabicyclo[4.2.0]oct-2-ene-2-carboxylate]

- MIC [1, 24]: 16 µg/mL (≈ 22.3 µM)
- MIC [1, 25]: 32 µg/mL (≈ 44.6 µM)
- MIC [2, 28]: 16 µg/mL
- MIC [3, 29]: 2 µg/mL
- MIC [4, 30]: 8 µg/mL
- MIC [5, 31]: > 32 µg/mL
- MIC [6, 32]: > 32 µg/mL
- MIC [7, 33]: 8 µg/mL (≈ 11.1 µM)
- MIC [7, 34]: 32 µg/mL (≈ 44.6 µM)
- MIC [8, 31]: 32 µg/mL (≈ 44.6 µM)
- MIC [9, 31]: 0.12 µg/mL
- MIC [10, 35]: 16 µg/mL (≈ 22.3 µM)
- MIC [10, 36]: 32 µg/mL (≈ 44.6 µM)
- MIC [11, 28]: 8 µg/mL
- MIC [12, 37]: 0.5 µg/mL
- MIC [13, 31]: 16 µg/mL
- MIC ([14]; alone, read-out: MIC): 16 µg/mL
- MIC [15, 28]: 32 µg/mL
- MIC [16, 37]: > 32 µg/mL
- MIC [17, 31]: 4 µg/mL
- MIC [18, 31]: 4 µg/mL
- MIC [19, 30]: 2 µg/mL
- MIC [20, 32]: > 32 µg/mL
- MIC [21, 38]: 4 µg/mL
- MIC [22, 32]: 4 µg/mL
- MIC [23, 39]: 8 µg/mL
SMILES: CC(C)(O/N=C(\C(=O)N[C@@H]1C(=O)N2C(C(=O)[O-])=C(C[n+]3ccc4c(ccn4Cc4ccc(C(=N)N)cc4)c3)CS[C@H]12)c1csc(N)n1)C(=O)O [Ex-1, (6R,7R)-7-{[(2Z)-2-(2-Amino-1,3-thiazol-4-yl)-2-{[(2-carboxypropan-2-yl)oxy]imino}acetyl]-amino}-3-{[1-(4-carbamimidoylbenzyl)-1H-pyrrolo[3,2-c]pyridin-5-ium-5-yl]methyl}-8-oxo-5-thia-1-azabicyclo[4.2.0]oct-2-ene-2-carboxylate]
